Reference: patent US20180030500A1, “ENRICHMENT AND SELECTIVE CULTURE OF MYCOBACTERIA” (priority 2015, published 2018)
Read-outs that look alike come from different tables or passages of the source.

Assays:
Aspergillus flavus (ENV) = assay: Sensitivity to C-390 in medium W; type: cell-based; set-up: key: NG: no growth; Tr: traces
Experimental: (§1) An evaluation of the sensitivity to C-390 of various microorganisms capable of infecting the airways was carried out. This evaluation was carried out using medium W of example 4, containing a variable concentration of C-390. Table 10 below collates the observations collected with regard to the intensity of growth of the strains tested as a function of the C-390 concentration of the medium. The abbreviations NG (“no growth”) and Tr (“traces”) signify that no growth was observed or only a few not very significant traces.

[1] = system: Aspergillus fumigatus (Anon); assay: Sensitivity to C-390 in medium W; type: cell-based; set-up: key: NG: no growth; Tr: traces
Experimental: as §1

[2] = system: Aspergillus terreus (Anon); assay: Sensitivity to C-390 in medium W; type: cell-based; set-up: key: NG: no growth; Tr: traces
Experimental: as §1

[3] = system: Burkholderia ambifaria (LMG 19467); assay: Sensitivity to C-390 in medium W; type: cell-based; set-up: key: NG: no growth; Tr: traces
Experimental: as §1

[4] = system: Burkholderia cenocepacia (640328); assay: Sensitivity to C-390 in medium W; type: cell-based; set-up: key: NG: no growth; Tr: traces
Experimental: as §1

[5] = system: Burkholderia cenocepacia (672834P); assay: Sensitivity to C-390 in medium W; type: cell-based; set-up: key: NG: no growth; Tr: traces
Experimental: as §1

[6] = system: Burkholderia cepacia (LMG 1222); assay: Sensitivity to C-390 in medium W; type: cell-based; set-up: key: NG: no growth; Tr: traces
Experimental: as §1

[7] = system: Burkholderia gladioli (ENV); assay: Sensitivity to C-390 in medium W; type: cell-based; set-up: key: NG: no growth; Tr: traces
Experimental: as §1

[8] = system: Burkholderia multivorans (645914C); assay: Sensitivity to C-390 in medium W; type: cell-based; set-up: key: NG: no growth; Tr: traces
Experimental: as §1

[9] = system: Burkholderia multivorans (LMG 18822); assay: Sensitivity to C-390 in medium W; type: cell-based; set-up: key: NG: no growth; Tr: traces
Experimental: as §1

[10] = system: Burkholderia vietnamiensis (744978N); assay: Sensitivity to C-390 in medium W; type: cell-based; set-up: key: NG: no growth; Tr: traces
Experimental: as §1

[11] = system: Burkholderia vietnamiensis (LMG 18835); assay: Sensitivity to C-390 in medium W; type: cell-based; set-up: key: NG: no growth; Tr: traces
Experimental: as §1

Fusarium oxysporum (ENV) = assay: Sensitivity to C-390 in medium W; type: cell-based; set-up: key: NG: no growth; Tr: traces
Experimental: as §1

[12] = system: Scedosporium apiospermum (Anon); assay: Sensitivity to C-390 in medium W; type: cell-based; set-up: key: NG: no growth; Tr: traces
Experimental: as §1

[13] = system: Scedosporium prolificans (Anon); assay: Sensitivity to C-390 in medium W; type: cell-based; set-up: key: NG: no growth; Tr: traces
Experimental: as §1

Mycobacteria = details: 20 strains, 7 days
Pseudomonas aeruginosa = details: 50 strains, 7 days
Enterobacteria = details: 7 strains, 7 days
Gram-positive bacteria = details: 10 strains, 7 days
[14] = selective agent 32 mg/l in medium L
[15] = selective agent 64 mg/l in medium L
[16] = selective agent 128 mg/l in medium L

CCN(CC)c1ccc(C2(Cl)c3ccccc3N(c3ccccc3)c3ccccc32)cc1 [Medium C-390, 9-chloro-9-(4′-diethylamino)phenyl-9,10-dihydro-10-phenylacridine]
intensity of growth (Aspergillus flavus (ENV); C-390 8 mg/l in medium W): NG
intensity of growth (Aspergillus flavus (ENV); C-390 16 mg/l in medium W): NG
intensity of growth (Aspergillus flavus (ENV); C-390 32 mg/l in medium W): NG
intensity of growth ([1]; C-390 0.5 mg/l in medium W): Tr
intensity of growth ([1]; C-390 1 mg/l in medium W): NG
intensity of growth ([1]; C-390 2 mg/l in medium W): NG
intensity of growth ([1]; C-390 4 mg/l in medium W): NG
intensity of growth ([1]; C-390 8 mg/l in medium W): NG
intensity of growth ([1]; C-390 16 mg/l in medium W): NG
intensity of growth ([1]; C-390 32 mg/l in medium W): NG
intensity of growth ([2]; C-390 1 mg/l in medium W): NG
intensity of growth ([2]; C-390 2 mg/l in medium W): NG
intensity of growth ([2]; C-390 4 mg/l in medium W): NG
intensity of growth ([2]; C-390 8 mg/l in medium W): NG
intensity of growth ([2]; C-390 16 mg/l in medium W): NG
intensity of growth ([2]; C-390 32 mg/l in medium W): NG
intensity of growth ([3]; C-390 0.5 mg/l in medium W): NG
intensity of growth ([3]; C-390 1 mg/l in medium W): NG
intensity of growth ([3]; C-390 2 mg/l in medium W): NG
intensity of growth ([3]; C-390 4 mg/l in medium W): NG
intensity of growth ([3]; C-390 8 mg/l in medium W): NG
intensity of growth ([3]; C-390 16 mg/l in medium W): NG
intensity of growth ([3]; C-390 32 mg/l in medium W): NG
intensity of growth ([4]; C-390 16 mg/l in medium W): NG
intensity of growth ([4]; C-390 32 mg/l in medium W): NG
intensity of growth ([5]; C-390 8 mg/l in medium W): NG
intensity of growth ([5]; C-390 16 mg/l in medium W): NG
intensity of growth ([5]; C-390 32 mg/l in medium W): NG
intensity of growth ([6]; C-390 2 mg/l in medium W): Tr
intensity of growth ([6]; C-390 4 mg/l in medium W): NG
intensity of growth ([6]; C-390 8 mg/l in medium W): NG
intensity of growth ([6]; C-390 16 mg/l in medium W): NG
intensity of growth ([6]; C-390 32 mg/l in medium W): NG
intensity of growth ([7]; C-390 16 mg/l in medium W): NG
intensity of growth ([7]; C-390 32 mg/l in medium W): NG
intensity of growth ([8]; C-390 2 mg/l in medium W): NG
intensity of growth ([8]; C-390 4 mg/l in medium W): NG
intensity of growth ([8]; C-390 8 mg/l in medium W): NG
intensity of growth ([8]; C-390 16 mg/l in medium W): NG
intensity of growth ([8]; C-390 32 mg/l in medium W): NG
intensity of growth ([9]; C-390 4 mg/l in medium W): NG
intensity of growth ([9]; C-390 8 mg/l in medium W): NG
intensity of growth ([9]; C-390 16 mg/l in medium W): NG
intensity of growth ([9]; C-390 32 mg/l in medium W): NG
intensity of growth ([10]; C-390 1 mg/l in medium W): Tr
intensity of growth ([10]; C-390 2 mg/l in medium W): NG
intensity of growth ([10]; C-390 4 mg/l in medium W): NG
intensity of growth ([10]; C-390 8 mg/l in medium W): NG
intensity of growth ([10]; C-390 16 mg/l in medium W): NG
intensity of growth ([10]; C-390 32 mg/l in medium W): NG
intensity of growth ([11]; C-390 1 mg/l in medium W): NG
intensity of growth ([11]; C-390 2 mg/l in medium W): NG
intensity of growth ([11]; C-390 4 mg/l in medium W): NG
intensity of growth ([11]; C-390 8 mg/l in medium W): NG
intensity of growth ([11]; C-390 16 mg/l in medium W): NG
intensity of growth ([11]; C-390 32 mg/l in medium W): NG
intensity of growth (Fusarium oxysporum (ENV); C-390 8 mg/l in medium W): NG
intensity of growth (Fusarium oxysporum (ENV); C-390 16 mg/l in medium W): NG
intensity of growth (Fusarium oxysporum (ENV); C-390 32 mg/l in medium W): NG
intensity of growth ([12]; C-390 2 mg/l in medium W): NG
intensity of growth ([12]; C-390 4 mg/l in medium W): NG
intensity of growth ([12]; C-390 8 mg/l in medium W): NG
intensity of growth ([12]; C-390 16 mg/l in medium W): NG
intensity of growth ([12]; C-390 32 mg/l in medium W): NG
intensity of growth ([13]; C-390 0.5 mg/l in medium W): NG
intensity of growth ([13]; C-390 1 mg/l in medium W): NG
intensity of growth ([13]; C-390 2 mg/l in medium W): NG
intensity of growth ([13]; C-390 4 mg/l in medium W): NG
intensity of growth ([13]; C-390 8 mg/l in medium W): NG
intensity of growth ([13]; C-390 16 mg/l in medium W): NG
intensity of growth ([13]; C-390 32 mg/l in medium W): NG
Number of strains having shown growth (Mycobacteria; [14]): 19
Percentage of strains having shown growth (Mycobacteria; [14]): (95%)
Number of strains having shown growth (Mycobacteria; [15]): 19
Percentage of strains having shown growth (Mycobacteria; [15]): (95%)
Number of strains having shown growth (Mycobacteria; [16]): 19
Percentage of strains having shown growth (Mycobacteria; [16]): (95%)
Number of strains having shown growth (Pseudomonas aeruginosa; [14]): 46
Percentage of strains having shown growth (Pseudomonas aeruginosa; [14]): (92%)
Number of strains having shown growth (Pseudomonas aeruginosa; [15]): 45
Percentage of strains having shown growth (Pseudomonas aeruginosa; [15]): (90%)
Number of strains having shown growth (Pseudomonas aeruginosa; [16]): 35
Percentage of strains having shown growth (Pseudomonas aeruginosa; [16]): (70%)
Number of strains having shown growth (Enterobacteria; [14]): 0
Number of strains having shown growth (Enterobacteria; [15]): 0
Number of strains having shown growth (Enterobacteria; [16]): 0
Number of strains having shown growth (Gram-positive bacteria; [14]): 0
Number of strains having shown growth (Gram-positive bacteria; [15]): 0
Number of strains having shown growth (Gram-positive bacteria; [16]): 0
